The source of these data is patent US4585589A, “Water-soluble alkanoyloxy and alkoxycarbonyloxy rifampicin derivatives, process for its preparation, intermediates, and its pharmaceutical composition as antibacterials” (Gruppo Lepetit S.p.A., priority 1983, dated 1986).

Data set [1] is described as follows: solubility in water containing 2% ascorbic acid (solution A) and in water containing 2% ascorbic acid and 10% propylene glycol (solution B), with pH of the resulting solutions. It counts as physicochemical. As for the experimental part: The compounds of the present invention show a marked solubility in water as well as in mixtures of water with other pharmaceutically acceptable solvents miscible with water. In particular, the solubility of the compounds of the present invention in comparison with rifampicin was assayed in water containing 2% ascorbic acid (solution A) and in water containing 2% ascorbic acid and 10% propylene glycol (solution B) and the pH of the resulting solutions was recorded.

Data set [2] deals with Staphylococcus aureus Tour. The experiment in a line: antibacterial activity in mice infected with Staphylococcus aureus Tour. The note with it: sc, values in parentheses as printed, read-out: ED50 against S. aureus Tour. It counts as in vivo. As for the experimental part:
As expected, this slight delay in hydrolysis in vivo reflects in a median effective dose (ED50) for the compounds of formula I somewhat higher than for rifampicin. In particular the antibacterial activity of the compounds of the present invention was tested in mice infected with Staphylococcus aureus Tour.

The conditions of data set [3]: cited from earlier work.
The mark [4] stands for this setting: solution A: water containing 2% ascorbic acid.
[5] abbreviates: water with 2% ascorbic acid, solution A: water containing 2% ascorbic acid, read-out: solubility.

Converted amounts (≈) assume the structure as drawn. Read-outs that look alike come from different tables or passages of the source.

As usually defined, the solubility is how much of the substance goes into solution per volume. A word on the ED50: it is the midpoint of the dose-response relation. `CO[C@H]1/C=C/O[C@@]2(C)Oc3c(C)c(OC(C)=O)c4c(O)c(c(/C=N/N5CCN(C)CC5)c(O)c4c3C2=O)NC(=O)/C(C)=C\C=C\[C@H](C)[C@H](O)[C@@H](C)[C@@H](O)[C@@H](C)[C@H](OC(C)=O)[C@@H]1C` [Example 4, 3-[[(4-methyl-1-piperazinyl)imino]methyl]rifamycin 8-acetate]: the solubility in data set [1] (organic solvent or mixture, solution B: water containing 2% ascorbic acid and 10% propylene glycol, read-out: solubility) amounted to 150 mg/mL (≈ 173 mM); in data set [1] (setting [5]) it was 100 mg/mL (≈ 116 mM). The “pH of the resulting solution” value in data set [1] (setting [4]) worked out at 4.0; in data set [1] (solution B: water containing 2% ascorbic acid and 10% propylene glycol) it was 4.2. The 50% effective dose (ED50) in data set [2] turned out to be 0.35 mg/kg.
As to `CCOC(=O)Oc1c(C)c2c3c4c(O)c(/C=N/N5CCN(C)CC5)c(c(O)c14)NC(=O)/C(C)=C\C=C\[C@H](C)[C@H](O)[C@@H](C)[C@@H](O)[C@@H](C)[C@H](OC(C)=O)[C@H](C)[C@@H](OC)/C=C/O[C@@](C)(O2)C3=O` [Example 6, 3-[[(4-methyl-1-piperazinyl)imino]methyl]rifamycin 8-ethylcarbonate], the ED50 in data set [2] worked out at 0.76 mg/kg.
Turning to `CO[C@H]1/C=C/O[C@@]2(C)Oc3c(C)c(OC(C)=O)c4c(O)c(c(/C=N/N5CCN(C)CC5)c(OC(C)=O)c4c3C2=O)NC(=O)/C(C)=C\C=C\[C@H](C)[C@H](O)[C@@H](C)[C@@H](O)[C@@H](C)[C@H](OC(C)=O)[C@@H]1C` [Example 7], the “pH of the resulting solution” value in data set [1] (setting [4]) was determined as 4.5. For the same compound, the solubility in data set [1] (setting [5]) is greater than 300 mg/mL. The ED50 in data set [2] is 1.5 mg/kg.
As to `CO[C@H]1/C=C/O[C@@]2(C)Oc3c(C)c(O)c4c(O)c(c(/C=N/N5CCN(C)CC5)c(O)c4c3C2=O)NC(=O)/C(C)=C\C=C\[C@H](C)[C@H](O)[C@@H](C)[C@@H](O)[C@@H](C)[C@H](OC(C)=O)[C@@H]1C` [rifampicin, 3-[[(4-methyl-1-piperazinyl)imino]methyl]rifamycin], in data set [1] (in either solution (A or B)), the “pH of the resulting solution” value was 3.5-3.6. In data set [1] (water with 2% ascorbic acid), this compound yielded a solubility of less than 50 mg/mL. In data set [3], the “solubility in various aqueous media” value is on record as “lower than 20 mg/ml”.
On to `CCC(=O)Oc1c(C)c2c3c4c(O)c(/C=N/N5CCN(C)CC5)c(c(O)c14)NC(=O)/C(C)=C\C=C\[C@H](C)[C@H](O)[C@@H](C)[C@@H](O)[C@@H](C)[C@H](OC(C)=O)[C@H](C)[C@@H](OC)/C=C/O[C@@](C)(O2)C3=O` [Example 5, 3-[[(4-methyl-1-piperazinyl)imino]methyl]rifamycin 8-pro-panoate], for which, in data set [2], the 50% effective dose (ED50) turned out to be 1.2 mg/kg.
